Laboratory results published in doi:10.1101/2024.08.19.608619, “Discovery of potent SARS-CoV-2 nsp3 macrodomain inhibitors uncovers lack of translation to cellular antiviral response” (bioRxiv, 2024).
Values joined by “and” are separate entries in the source; they are usually repeats but may differ in a detail not shown here. Equal entries are not always repeated. Where two headings read alike, the source gives them in different places.

Key:
[1] = biological target: T1, Lck kinase (h) (Homo sapiens, UniProt P06239); assay: In vitro CEREP profiling, Lck kinase (h); format: biochemical; conditions: test compound concentration 10 uM, Enzyme and Cell-based assays; for inhibition at 10 µM: read-out: perc_inhibition: % inhibition of control enzyme activity, Lck kinase (h)
T1 construct: purchased Eurofins Cerep (SafetyScreen44), recognised from the panel format
T1 sequence (P06239 whole entry): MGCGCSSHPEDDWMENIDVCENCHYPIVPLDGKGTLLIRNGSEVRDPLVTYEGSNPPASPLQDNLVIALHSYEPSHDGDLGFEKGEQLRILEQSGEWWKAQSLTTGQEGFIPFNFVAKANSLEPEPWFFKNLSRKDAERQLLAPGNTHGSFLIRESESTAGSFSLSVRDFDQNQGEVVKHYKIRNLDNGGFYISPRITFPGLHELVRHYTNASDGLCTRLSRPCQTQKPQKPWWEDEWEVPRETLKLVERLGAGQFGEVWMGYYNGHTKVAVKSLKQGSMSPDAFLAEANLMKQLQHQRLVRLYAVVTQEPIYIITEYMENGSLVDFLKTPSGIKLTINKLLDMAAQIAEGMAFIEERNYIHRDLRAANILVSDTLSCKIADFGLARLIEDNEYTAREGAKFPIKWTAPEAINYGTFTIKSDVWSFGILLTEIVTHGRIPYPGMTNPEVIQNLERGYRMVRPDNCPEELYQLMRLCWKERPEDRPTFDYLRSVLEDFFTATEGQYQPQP
Text: (§1) Supplement media-1.zip/Safety_Panel_Profile.csv, table | column: perc_inhibition

[2] = test system: MERS-CoV; assay: microbe, parasite or virus in culture; format: cell-based; conditions: for perc_max_measured: maximum measured response of dose series; for perc_min_measured: minimum measured response of dose series
[3] = biological target: T2, GR (h) (Homo sapiens, UniProt P04150); assay: In vitro CEREP profiling, GR (h) (agonist radioligand); format: binding; conditions: test compound concentration 10 uM; for inhibition at 10 µM: read-out: perc_inhibition, % inhibition of the binding of a ligand specific for each target
T2 construct: purchased Eurofins Cerep (SafetyScreen44), recognised from the panel format
T2 sequence (P04150 1-777): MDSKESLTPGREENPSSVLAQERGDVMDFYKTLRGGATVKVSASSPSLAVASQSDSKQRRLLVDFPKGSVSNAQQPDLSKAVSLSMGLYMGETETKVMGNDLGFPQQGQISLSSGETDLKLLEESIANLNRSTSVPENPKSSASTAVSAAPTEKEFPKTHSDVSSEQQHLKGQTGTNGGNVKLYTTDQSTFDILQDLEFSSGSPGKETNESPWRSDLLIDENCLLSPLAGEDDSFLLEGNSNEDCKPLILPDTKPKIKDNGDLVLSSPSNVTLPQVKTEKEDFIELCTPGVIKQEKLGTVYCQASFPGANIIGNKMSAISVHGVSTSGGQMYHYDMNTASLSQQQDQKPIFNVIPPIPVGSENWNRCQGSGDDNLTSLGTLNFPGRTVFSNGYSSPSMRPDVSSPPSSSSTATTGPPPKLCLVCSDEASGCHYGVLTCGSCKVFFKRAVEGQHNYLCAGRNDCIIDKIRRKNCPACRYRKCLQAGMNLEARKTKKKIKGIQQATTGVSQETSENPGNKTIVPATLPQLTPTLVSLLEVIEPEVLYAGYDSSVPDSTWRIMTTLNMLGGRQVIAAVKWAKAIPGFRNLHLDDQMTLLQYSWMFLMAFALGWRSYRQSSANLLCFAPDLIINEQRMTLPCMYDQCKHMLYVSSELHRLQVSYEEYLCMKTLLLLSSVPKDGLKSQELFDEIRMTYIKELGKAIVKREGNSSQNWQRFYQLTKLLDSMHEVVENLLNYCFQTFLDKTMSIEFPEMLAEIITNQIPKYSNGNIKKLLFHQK
Text: as §1

[4] = biological target: T3, COX1(h) (Homo sapiens, UniProt P23219); assay: In vitro CEREP profiling, COX1(h); format: biochemical; conditions: test compound concentration 10 uM, Enzyme and Cell-based assays; for inhibition at 10 µM: read-out: perc_inhibition: % inhibition of control enzyme activity, COX1(h)
T3 construct: purchased Eurofins Cerep (SafetyScreen44), recognised from the panel format
T3 sequence (P23219 24-599): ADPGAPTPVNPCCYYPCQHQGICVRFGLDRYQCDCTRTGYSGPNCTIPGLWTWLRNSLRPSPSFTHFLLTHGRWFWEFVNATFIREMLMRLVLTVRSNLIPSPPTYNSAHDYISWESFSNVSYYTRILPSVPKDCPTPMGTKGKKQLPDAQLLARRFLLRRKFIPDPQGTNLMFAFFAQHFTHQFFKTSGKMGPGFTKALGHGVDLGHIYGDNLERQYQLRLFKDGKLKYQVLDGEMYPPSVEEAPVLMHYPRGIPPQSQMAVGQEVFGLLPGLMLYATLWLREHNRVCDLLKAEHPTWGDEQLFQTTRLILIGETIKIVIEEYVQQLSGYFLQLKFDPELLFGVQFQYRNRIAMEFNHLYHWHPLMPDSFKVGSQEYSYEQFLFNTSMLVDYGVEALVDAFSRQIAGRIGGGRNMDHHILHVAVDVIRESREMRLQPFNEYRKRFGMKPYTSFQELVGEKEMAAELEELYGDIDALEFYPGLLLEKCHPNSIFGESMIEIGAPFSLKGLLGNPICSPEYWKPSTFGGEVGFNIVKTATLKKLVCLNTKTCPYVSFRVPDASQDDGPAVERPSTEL
Text: as §1

[5] = biological target: T4, acetylcholinesterase (h) (Homo sapiens, UniProt P22303); assay: In vitro CEREP profiling, acetylcholinesterase (h); format: biochemical; conditions: test compound concentration 10 uM, Enzyme and Cell-based assays; for inhibition at 10 µM: read-out: perc_inhibition: % inhibition of control enzyme activity, acetylcholinesterase (h)
T4 construct: purchased Eurofins Cerep (SafetyScreen44), recognised from the panel format
T4 sequence (P22303 32-614): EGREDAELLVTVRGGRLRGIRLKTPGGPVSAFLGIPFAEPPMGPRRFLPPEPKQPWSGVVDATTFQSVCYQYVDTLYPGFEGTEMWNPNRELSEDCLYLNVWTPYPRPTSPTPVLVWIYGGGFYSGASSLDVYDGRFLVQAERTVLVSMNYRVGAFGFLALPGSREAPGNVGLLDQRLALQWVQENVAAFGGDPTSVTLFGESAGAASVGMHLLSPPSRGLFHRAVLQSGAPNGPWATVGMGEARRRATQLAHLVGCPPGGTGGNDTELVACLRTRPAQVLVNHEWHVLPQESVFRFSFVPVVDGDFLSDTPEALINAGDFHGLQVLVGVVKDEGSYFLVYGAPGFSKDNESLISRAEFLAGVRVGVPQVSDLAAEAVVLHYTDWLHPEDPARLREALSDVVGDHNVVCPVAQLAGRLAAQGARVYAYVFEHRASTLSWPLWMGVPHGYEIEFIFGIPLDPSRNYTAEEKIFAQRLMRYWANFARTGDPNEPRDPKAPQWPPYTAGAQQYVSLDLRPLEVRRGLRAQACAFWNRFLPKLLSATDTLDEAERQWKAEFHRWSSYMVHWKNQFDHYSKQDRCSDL
Text: as §1

[6] = biological target: T5, 5-HT2B (h) (Homo sapiens, UniProt P41595); assay: In vitro CEREP profiling, 5-HT2B (h) (agonist radioligand); format: binding; conditions: test compound concentration 10 uM; for inhibition at 10 µM: read-out: perc_inhibition, % inhibition of the binding of a ligand specific for each target
T5 construct: purchased Eurofins Cerep (SafetyScreen44), recognised from the panel format
T5 sequence (P41595 whole entry): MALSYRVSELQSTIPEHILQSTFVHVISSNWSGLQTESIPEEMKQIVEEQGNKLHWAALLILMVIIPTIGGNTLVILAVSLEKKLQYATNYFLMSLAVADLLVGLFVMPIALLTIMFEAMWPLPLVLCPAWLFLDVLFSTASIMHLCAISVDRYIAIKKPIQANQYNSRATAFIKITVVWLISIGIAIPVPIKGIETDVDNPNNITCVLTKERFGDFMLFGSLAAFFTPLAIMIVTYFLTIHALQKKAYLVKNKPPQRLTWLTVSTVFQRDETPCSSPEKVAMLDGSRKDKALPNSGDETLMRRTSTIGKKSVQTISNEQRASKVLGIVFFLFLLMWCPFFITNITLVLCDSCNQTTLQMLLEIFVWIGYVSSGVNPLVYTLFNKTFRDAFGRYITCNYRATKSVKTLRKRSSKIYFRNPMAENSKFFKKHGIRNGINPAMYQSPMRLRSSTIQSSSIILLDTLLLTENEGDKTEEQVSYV
Text: as §1

[7] = biological target: T6, dopamine transporter (h) (Homo sapiens, UniProt Q01959); assay: In vitro CEREP profiling, dopamine transporter (h) (antagonist radioligand); format: binding; conditions: test compound concentration 10 uM; for inhibition at 10 µM: read-out: perc_inhibition, % inhibition of the binding of a ligand specific for each target
T6 construct: purchased Eurofins Cerep (SafetyScreen44), recognised from the panel format
T6 sequence (Q01959 whole entry): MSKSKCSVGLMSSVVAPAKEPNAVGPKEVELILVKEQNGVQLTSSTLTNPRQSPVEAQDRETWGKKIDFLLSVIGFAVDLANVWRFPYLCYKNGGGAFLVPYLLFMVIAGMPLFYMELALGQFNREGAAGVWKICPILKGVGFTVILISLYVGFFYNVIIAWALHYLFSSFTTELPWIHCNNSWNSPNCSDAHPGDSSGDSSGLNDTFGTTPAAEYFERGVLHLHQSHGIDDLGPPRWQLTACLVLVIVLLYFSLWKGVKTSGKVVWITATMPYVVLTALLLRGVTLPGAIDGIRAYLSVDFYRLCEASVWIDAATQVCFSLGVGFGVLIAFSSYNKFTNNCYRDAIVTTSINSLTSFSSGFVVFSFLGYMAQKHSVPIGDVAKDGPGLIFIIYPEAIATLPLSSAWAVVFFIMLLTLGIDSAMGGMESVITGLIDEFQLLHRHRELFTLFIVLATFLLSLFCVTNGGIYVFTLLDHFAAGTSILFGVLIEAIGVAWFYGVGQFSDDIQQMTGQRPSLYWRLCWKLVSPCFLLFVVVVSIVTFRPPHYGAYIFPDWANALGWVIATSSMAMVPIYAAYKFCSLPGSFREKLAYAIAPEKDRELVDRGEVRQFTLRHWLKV
Text: as §1

[8] = biological target: T7, MAO-A (Rattus norvegicus, UniProt P21396); assay: In vitro CEREP profiling, MAO-A (antagonist radioligand); format: binding; conditions: test compound concentration 10 uM; for inhibition at 10 µM: read-out: perc_inhibition (% inhibition of the binding of a ligand specific for each target)
T7 construct: purchased Eurofins Cerep (SafetyScreen44), recognised from the panel format
T7 sequence (P21396 1-526): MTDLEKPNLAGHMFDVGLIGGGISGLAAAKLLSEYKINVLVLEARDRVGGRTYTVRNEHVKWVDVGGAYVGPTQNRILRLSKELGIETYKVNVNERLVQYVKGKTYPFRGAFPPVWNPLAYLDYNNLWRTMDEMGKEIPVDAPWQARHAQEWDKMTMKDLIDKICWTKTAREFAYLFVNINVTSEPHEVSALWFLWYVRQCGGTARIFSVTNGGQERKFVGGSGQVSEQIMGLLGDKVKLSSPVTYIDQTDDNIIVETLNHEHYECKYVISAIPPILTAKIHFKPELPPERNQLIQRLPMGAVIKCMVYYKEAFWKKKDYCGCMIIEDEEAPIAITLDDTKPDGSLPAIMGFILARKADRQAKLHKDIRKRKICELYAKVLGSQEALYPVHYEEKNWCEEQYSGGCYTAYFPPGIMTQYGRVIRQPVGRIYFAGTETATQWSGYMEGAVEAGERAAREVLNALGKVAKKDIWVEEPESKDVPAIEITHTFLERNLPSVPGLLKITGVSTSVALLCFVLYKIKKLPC
Text: as §1

[9] = In vitro mouse hepatocyte stability; format: in vitro ADME
Text: Supplement media-1.zip/Hepatocyte_Stability.csv, table | column: clint; t_half

[10] = biological target: T8, norepinephrine transporter (h) (Homo sapiens, UniProt P23975); assay: In vitro CEREP profiling, norepinephrine transporter (h) (antagonist radioligand); format: binding; conditions: test compound concentration 10 uM; for inhibition at 10 µM: read-out: perc_inhibition, % inhibition of the binding of a ligand specific for each target
T8 construct: purchased Eurofins Cerep (SafetyScreen44), recognised from the panel format
T8 sequence (P23975 whole entry): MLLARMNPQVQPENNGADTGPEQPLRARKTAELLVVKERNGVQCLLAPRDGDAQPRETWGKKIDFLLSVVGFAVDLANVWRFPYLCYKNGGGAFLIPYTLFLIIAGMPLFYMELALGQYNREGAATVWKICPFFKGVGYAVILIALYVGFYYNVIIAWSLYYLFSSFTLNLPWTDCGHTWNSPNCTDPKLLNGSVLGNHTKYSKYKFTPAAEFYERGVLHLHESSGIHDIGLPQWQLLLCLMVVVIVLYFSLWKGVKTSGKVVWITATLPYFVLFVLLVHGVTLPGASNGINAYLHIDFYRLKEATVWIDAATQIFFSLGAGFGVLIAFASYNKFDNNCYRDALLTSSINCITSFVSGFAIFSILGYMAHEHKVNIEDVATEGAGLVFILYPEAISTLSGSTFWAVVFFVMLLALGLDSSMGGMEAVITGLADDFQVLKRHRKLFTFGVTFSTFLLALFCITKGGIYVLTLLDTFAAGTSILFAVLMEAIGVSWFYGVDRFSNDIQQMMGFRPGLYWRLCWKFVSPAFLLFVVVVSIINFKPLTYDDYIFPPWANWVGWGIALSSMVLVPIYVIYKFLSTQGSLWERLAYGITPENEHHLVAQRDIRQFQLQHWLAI
Text: as §1

[11] = biological target: T9, H2 (h) (Homo sapiens, UniProt P25021); assay: In vitro CEREP profiling, H2 (h) (antagonist radioligand); format: binding; conditions: test compound concentration 10 uM; for inhibition at 10 µM: read-out: perc_inhibition (% inhibition of the binding of a ligand specific for each target)
T9 construct: purchased Eurofins Cerep (SafetyScreen44), recognised from the panel format
T9 sequence (P25021 whole entry): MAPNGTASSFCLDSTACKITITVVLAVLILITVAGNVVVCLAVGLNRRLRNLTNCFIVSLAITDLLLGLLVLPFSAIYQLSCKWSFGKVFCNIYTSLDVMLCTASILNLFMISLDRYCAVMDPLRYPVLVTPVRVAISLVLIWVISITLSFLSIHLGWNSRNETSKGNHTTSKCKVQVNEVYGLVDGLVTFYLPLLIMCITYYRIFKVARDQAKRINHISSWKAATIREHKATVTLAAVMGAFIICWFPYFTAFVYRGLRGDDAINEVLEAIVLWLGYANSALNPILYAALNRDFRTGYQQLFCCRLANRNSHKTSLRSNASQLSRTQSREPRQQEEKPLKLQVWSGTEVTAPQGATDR
Text: as §1

[12] = biological target: T10, 5-HT2A (h) (Homo sapiens, UniProt P28223); assay: In vitro CEREP profiling, 5-HT2A (h) (agonist radioligand); format: binding; conditions: test compound concentration 10 uM; for inhibition at 10 µM: read-out: perc_inhibition, % inhibition of the binding of a ligand specific for each target
T10 construct: purchased Eurofins Cerep (SafetyScreen44), recognised from the panel format
T10 sequence (P28223 whole entry): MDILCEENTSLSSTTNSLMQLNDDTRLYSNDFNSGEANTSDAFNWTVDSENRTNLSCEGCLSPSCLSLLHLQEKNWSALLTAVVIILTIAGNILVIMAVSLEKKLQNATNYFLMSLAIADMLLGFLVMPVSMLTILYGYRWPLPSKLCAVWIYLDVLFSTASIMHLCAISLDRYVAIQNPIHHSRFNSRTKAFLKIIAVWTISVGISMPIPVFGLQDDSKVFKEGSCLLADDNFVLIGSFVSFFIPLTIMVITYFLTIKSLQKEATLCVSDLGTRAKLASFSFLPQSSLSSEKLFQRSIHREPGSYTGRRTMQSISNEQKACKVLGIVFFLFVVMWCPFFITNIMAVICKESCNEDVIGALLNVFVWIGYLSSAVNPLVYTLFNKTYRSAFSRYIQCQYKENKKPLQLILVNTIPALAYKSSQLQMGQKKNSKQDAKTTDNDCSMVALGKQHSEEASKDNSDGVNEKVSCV
Text: as §1

[13] = test system: Vero E6/TMPRSS2; assay: Vero E6/TMPRSS2 cytotoxicity with P-gp inhibitor; format: cell-based; conditions: for perc_max_measured: highest measured response of the dose series; for perc_min_measured: lowest measured response of the dose series
Text: Supplement media-1.zip/Cytotoxicity.csv, table | column: cc10; cc50; perc_min_measured; perc_max_measured

[14] = biological target: T11, PDE4D2 (h) (Homo sapiens, UniProt Q08499); assay: In vitro CEREP profiling, PDE4D2 (h); format: biochemical; conditions: test compound concentration 10 uM, Enzyme and Cell-based assays; for inhibition at 10 µM: read-out: perc_inhibition: % inhibition of control enzyme activity, PDE4D2 (h)
T11 construct: purchased Eurofins Cerep (SafetyScreen44), recognised from the panel format
Text: as §1

[15] = biological target: T12, 5-HT transporter (h) (Homo sapiens, UniProt P31645); assay: In vitro CEREP profiling, 5-HT transporter (h) (antagonist radioligand); conditions: test compound concentration 10 uM
T12 construct: purchased Eurofins Cerep (SafetyScreen44), recognised from the panel format
Text: as §1

[16] = biological target: T13, delta (DOP) (h) (Homo sapiens, UniProt P41143); assay: In vitro CEREP profiling, delta (DOP) (h) (agonist radioligand); format: binding; conditions: test compound concentration 10 uM; for inhibition at 10 µM: read-out: perc_inhibition (% inhibition of the binding of a ligand specific for each target)
T13 construct: purchased Eurofins Cerep (SafetyScreen44), recognised from the panel format
T13 sequence (P41143 whole entry): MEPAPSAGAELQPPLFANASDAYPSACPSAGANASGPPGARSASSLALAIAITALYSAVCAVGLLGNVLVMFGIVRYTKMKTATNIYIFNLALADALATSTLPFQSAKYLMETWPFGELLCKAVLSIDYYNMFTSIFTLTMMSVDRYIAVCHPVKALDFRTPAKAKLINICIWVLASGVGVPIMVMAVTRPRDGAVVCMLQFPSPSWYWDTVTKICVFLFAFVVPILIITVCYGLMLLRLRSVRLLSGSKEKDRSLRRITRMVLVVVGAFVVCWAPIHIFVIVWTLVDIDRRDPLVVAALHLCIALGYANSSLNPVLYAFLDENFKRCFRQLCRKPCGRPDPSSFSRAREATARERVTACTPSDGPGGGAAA
Text: as §1

[17] = biological target: T14, Potassium Channel hERG (human) (Homo sapiens, UniProt Q12809); assay: In vitro CEREP profiling, Potassium Channel hERG (human)- [3H] Dofetilide; format: binding; conditions: test compound concentration 10 uM
T14 construct: purchased Eurofins Cerep (SafetyScreen44), recognised from the panel format
Text: as §1

[18] = Middle East respiratory syndrome-related coronavirus, VeroE6/TMPRSS2
[19] = Vero E6/TMPRSS2 MERS-CoV antiviral effect with P-gp inhibitor

SMILES	inhibition at 10 µM [1]	EC50 [2, 18]	EC90 [2, 18]	perc_max_measured [2, 19]	perc_min_measured [2, 19]	inhibition at 10 µM [3]	inhibition at 10 µM [4]	inhibition at 10 µM [5]	inhibition at 10 µM [6]	inhibition at 10 µM [7]	inhibition at 10 µM [8]	clint [9]	t_half [9]	inhibition at 10 µM [10]	inhibition at 10 µM [11]	inhibition at 10 µM [12]	cc10 [13]	perc_max_measured [13]	perc_min_measured [13]	inhibition at 10 µM [14]	other results
CC(C)C(Nc1ncnc2[nH]c(C(=O)NC3CCN(C)C3)cc12)c1ccc2c(c1)S(=O)(=O)CCC2 (stereo not drawn) [ASAP-0011198]	15%	> 5 µM	> 5 µM	124.089% and 106.936%	88.282% and 84.091%	11%	44%	28%	6%	22%	3%	61.0 uL/min/1E6 cells	10.1 min and 11.4 min	-1%	-9%	1%	> 5.0 µM	120.684%	90.027%	37%	hepatocyte CLint ([9]; mouse, hepatocytes): 68.4 µL/min/1e6 cells; perc_inhibition: % inhibition of the binding of a ligand specific for each target, 5-HT transporter (h) (antagonist radioligand) [15]: 1%; inhibition at 10 µM [16]: -16%
Cc1nn(C)cc1-c1cc2c(NC(c3ccc4c(c3)S(=O)(=O)CCC4)C(C)C)ncnc2[nH]1 (stereo not drawn) [ASAP-0011446]	33%	> 5 µM	> 5 µM	103.374% and 130.763%	64.505% and 89.964%	7%	-23%	13%	43%	13%	5%			-2%	-4%	51%	> 5.0 µM	106.351%	79.435%	43%	perc_inhibition: % inhibition of the binding of a ligand specific for each target, 5-HT transporter (h) (antagonist radioligand) [15]: -4%; inhibition at 10 µM [16]: 16%
COc1ccc([C@H](Cc2nnn[nH]2)NC(=O)c2ncnc3[nH]ccc23)cc1 [ASAP-0015381]				110.958% and 111.344%	85.891% and 86.764%							4.6 uL/min/1E6 cells	151.0 min				> 5.0 µM	119.979%	89.804%		perc_inhibition: % inhibition of control enzyme activity, Lck kinase (h) [1]: 4%; EC50 ([2]; Vero E6/TMPRSS2 MERS-CoV antiviral effect with P-gp inhibitor, read-out: ec50): > 5 µM; EC90 ([2]; Vero E6/TMPRSS2 MERS-CoV antiviral effect with P-gp inhibitor, read-out: ec90): > 5 µM; perc_inhibition (% inhibition of the binding of a ligand specific for each target) [3]: 1%; perc_inhibition: % inhibition of control enzyme activity, COX1(h) [4]: 17%; perc_inhibition: % inhibition of control enzyme activity, acetylcholinesterase (h) [5]: 11%; perc_inhibition (% inhibition of the binding of a ligand specific for each target) [6]: -33%; perc_inhibition (% inhibition of the binding of a ligand specific for each target) [7]: 7%; perc_inhibition (% inhibition of the binding of a ligand specific for each target) [8]: 0%; perc_inhibition (% inhibition of the binding of a ligand specific for each target) [10]: -5%; perc_inhibition (% inhibition of the binding of a ligand specific for each target) [11]: -24%; perc_inhibition (% inhibition of the binding of a ligand specific for each target) [12]: -4%; CC50 [13]: > 5 µM; perc_inhibition: % inhibition of control enzyme activity, PDE4D2 (h) [14]: 41%; perc_inhibition (% inhibition of the binding of a ligand specific for each target) [17]: 5%; perc_inhibition (% inhibition of the binding of a ligand specific for each target) [16]: -30%
